Experimental data as given in patent publication US5527900A, “N3-alkyl-2',5'-0-silylated-3'-spiro-thymidine derivatives” (Stitching Rega VZW, priority 1991, dated 1996).
Values after ≈ are worked out from the molar mass of the structure shown. Like-named read-outs stand apart in the source and are kept apart here.

Legend:
HIV-1 (HTLV-IIIB) = experiment: Anti-retrovirus activity: inhibition of HIV-1-induced cytopathogenicity in MT-4 cells; assay type: cell-based; details: for EC50: Human immunodeficiency virus 1, IIIB, MT4, 120 h; for S.I. (Selectivity Index): CC50/EC50, MT-4 cells
Excerpt: The viruses used were moloney murine sarcoma virus (MSV), HIV-1 (strain HTLV-IIIB, kindly provided by R. C. Gallo and M. Popovic, National Cancer Institute, Bethesda, Md.), HIV-2 (strain LAV-2(ROD)), kindly provided by L. Montagnier (Pasteur Institute, Paris, France), simian immunodeficiency virus (SIV) (strain SIVMAC251, kindly provided by C. Bruck, RIT-Smith-Kline, Rixensart, Belgium).
(§1) In order to evaluate the inhibitory effects against retrovirus-induced cytopathogenicity in MT-4cells, said cells (5×10^5 cells/ml) were suspended in fresh culture medium and infected with HIV-1, HIV-2 or SIOV at 100 times the cell culture infective dose-50 (CCID50) per ml cell suspension (1 CCID50 being the dose infective for 50% of the cell cultures). Then, 100 μl of the infected cell suspension were transferred to microplate wells, mixed with 100 μl of the appropriate dilutions of the test compounds, and further incubated at 37° C. After 5 days, the number of viable cells was determined in a blood cell-counting chamber by trypan blue staining for both virus-infected and mock-infected cell cultures.

[1] = Cytotoxicity for mock-infected MT-4 cells; details: human, mt-4 cells
Protocol: as §1

[2] = Partition coefficient (Pa) between 1-octanol and 10 mM potassium phosphate buffer; assay type: physicochemical; details: 1-octanol / 10 mM potassium phosphate buffer, pH 7.5, 50 μM; for logD at 50 µM: room temperature
Protocol: Partition of the test compounds between 1-octanol (Merck, Darmstadt, Germany) and 10 mM potassium phosphate buffer, pH, 7.5 (Merck), was measured as described in Balzarini et al., Biochem, Biophys. Res. Commun. 158: 413-422 (1989). Briefly, a 50 μM concentration of the test compound in potassium phosphate buffer was thoroughly mixed with an equal volume of 1-octanol for 30 min at room temperature. Then, the mixture was further equilibrated at room temperature and UV absorption was measured for the aqueous and alcoholic liquid phases. The partition coefficient (Pa) was calculated as the ratio of the compound concentration present in the 1-octanol phase to the compound concentration present in the aqueous phase.

HIV-1 = experiment: Antiviral activity upon delayed addition to HIV-1-infected MT-4 cells; assay type: cell-based
Protocol: as §1
Mt-4 cells were suspended in culture medium, infected with HIV-1 and brought into microplate wells as described above. […] After 5 days, the number of viable cells was determined and the EC50 and CC50 values for the test compounds were defined as described in example 1.

MT-4 cells = experiment: Cytotoxicity for mock-infected MT-4 cells; details: for cytotoxicity to MT-4 cells (in words): at 100 μg/ml
Protocol: as §1

MT-4 cell DNA synthesis = experiment: Incorporation of radiolabeled precursors into MT-4 cell DNA; assay type: cell-based; details: Homo sapiens, MT4, MT-4 cells, 20 to 24 hr
Excerpt: (§2) The radiolabeled nucleosides [methyl-^3 H]dThd (specific radioactivity: 40 Ci/mmol), [5-^3 H]dUrd (specific radioactivity: 27 Ci/mmol), [5-^3 H]dCyc (specific radioactivity: 18.2 Ci/mmol) and the radiolabeled amino acid L-[4,5-^3 H]leucine (specific radioactivity: 52 Ci/mmol were derived from the Radiochemcial Centre (Amersham, England); [5-^3 H]Urd (specific radioactivity: 21 Ci/mmol) and [5-^3 H]Cyd (specific radioactivity: 21 Ci/mmol) and were obtained from Moravek Biochemicals Inc. (Brea, Calif.)
(§3) The incorporation of [methyl-^3 H]dThd, [5-^3 H]dUrd, [5-^3 H]dCyd, [5-^3 H]Urd, [5-^3 H]Cyd and L-[4,5-^3 H]1eu into TCA-insoluble MT-4 cell material was measured in wells of a 96-well microtiter plate (Falcon-3072, Becton-Dickinson, New Jersey). To each well were added 10^5 MT-4 cells, 0.25 μCi of the radiolabeled precursor and a given amount of test compound. The cells were allowed to proliferate for 20 to 24 hr at 37° C. in a humidified, CO2 -controlled atmosphere. At the end of this incubation period, the contents of the wells (200 μl) were brought onto 25-mm glass fiber filters (type A/E, Gelman Instrument Company, Ann Arbor, Mich.), and mounted on a Millipore 3025 sampling manifold apparatus. The filters were washed twice with 2 ml and 5 ml cold NaCl/Pi (phosphte-buffered saline), twice with 2 and 5 ml cold 10% trichloroacetic acid (TCA), twice with 5 and 7.5 ml cold 5% TCA, and twice with 1 ml cold ethanol.

MT-4 cell RNA synthesis = experiment: Incorporation of radiolabeled precursors into MT-4 cell RNA; assay type: cell-based; details: Homo sapiens, MT4, MT-4 cells, 20 to 24 hr
Excerpt: as §2, §3

[3] = test system: MT-4 cell protein synthesis; experiment: Incorporation of radiolabeled leucine into MT-4 cell protein; assay type: cell-based; details: Homo sapiens, MT4; MT-4 cells, 20 to 24 hr; read-out: IC50, L-[4,5-3H]leucine incorporation
Excerpt: as §2, §3

[4] = test system: MT-4 cell DNA, RNA or protein synthesis; experiment: Incorporation of radiolabeled DNA, RNA or protein precursors into TCA-insoluble MT-4 cell material (summary in words); assay type: cell-based; details: for inhibition of incorporation of dThd, dUrd, dCyd, Urd, Cyd or leucine: at 100 μg/ml
Excerpt: as §2, §3

HIV-2 strain (EHO) = experiment: Activity against HIV-2 strain EHO; assay type: cell-based
[5] = read-out: IC50, [5-3H]dCyd incorporation
[6] = read-out: IC50, [5-3H]dUrd incorporation
[7] = read-out: IC50, [methyl-3H]dThd incorporation
[8] = read-out: IC50, [5-3H]Cyd incorporation
[9] = read-out: IC50, [5-3H]Urd incorporation

SMILES	EC50 (HIV-1 (HTLV-IIIB)) [µg/mL]	S.I. (Selectivity Index) (HIV-1 (HTLV-IIIB); Table 1)	CC50 at 120 h [1] [µg/mL]	presence in the n-octanol phase compared to the aqueous phase [2]	logD at 50 µM [2]	other results
Cc1cn([C@@H]2O[C@H](CO)[C@@]3(OS(=O)(=O)C=C3N)[C@H]2O[Si](C)(C)C(C)(C)C)c(=O)[nH]c1=O [Compound 2]	> 40	< 2,5	106 (≈ 223 µM)	more than 95%	> 1.3	
CCc1cn([C@@H]2O[C@H](CO[Si](C)(C)C(C)(C)C)[C@@]3(OS(=O)(=O)C=C3N)[C@H]2O[Si](C)(C)C(C)(C)C)c(=O)[nH]c1=O [Compound 10, {1-[2', 5'-Bis-O-(tert-butyldimethylsilyl)-β-D-ribofuranosyl]-5-ethyl-uracil}-3'-spiro-5"-{4"-amino-1",2"-oxathiole-2",2"-dioxide}]	0.038 (≈ 0.0629 µM)	82	3.2 (≈ 5.3 µM)			decrease of antiviral activity on delayed addition (HIV-1; addition delayed by 17-24 hours, data not shown): 10 fold; antiviral activity on delayed addition (HIV-1; addition delayed by 41 to 48 hours): almost totally lost
C=CCn1c(=O)c(C)cn([C@@H]2O[C@H](CO[Si](C)(C)C(C)(C)C)[C@@]3(OS(=O)(=O)C=C3N)[C@H]2O[Si](C)(C)C(C)(C)C)c1=O [Compound 8, {1-[2', 5'-Bis-O-(tert-butyldimethylsilyl)-β-D-ribofuranosyl]-3-N-allyl-thymine}-3'-spiro-5"{4"-amino-1", 2"-oxathiole-2", 2"-dioxide}]	0.141 (≈ 0.224 µM)	> 1418	> 200	more than 95%	> 1.3	cytotoxicity to MT-4 cells (in words) (MT-4 cells): not cytotoxic; IC50 (MT-4 cell DNA synthesis; [5]): > 100 µg/mL; IC50 (MT-4 cell DNA synthesis; [6]): > 100 µg/mL; IC50 (MT-4 cell DNA synthesis; [7]): > 100 µg/mL; IC50 (MT-4 cell RNA synthesis; [8]): > 100 µg/mL; IC50 (MT-4 cell RNA synthesis; [9]): > 100 µg/mL; IC50 [3]: > 100 µg/mL; inhibition of incorporation of dThd, dUrd, dCyd, Urd, Cyd or leucine [4]: did not markedly inhibit
CC(C)(C)[Si](C)(C)OC[C@H]1O[C@@H](n2ccc(=O)[nH]c2=O)[C@H](O[Si](C)(C)C(C)(C)C)[C@]12OS(=O)(=O)C=C2N [Compound 11, {1-[2', 5'-Bis-O-(tert-butyldimethylsilyl)-β-D-ribofuranosyl]uracil}-3'-spiro-5"-{4"-amino-1", 2"-oxathiole-2", 2"-dioxide}]	0.114 (≈ 0.198 µM)	73	8.3 (≈ 14.4 µM)	more than 95%	> 1.3	inhibition of MT-4 cell proliferation (in words) (MT-4 cells): inhibitory to MT-4 cell proliferation; cytotoxicity to MT-4 cells (in words) (MT-4 cells): not cytotoxic; IC50 (MT-4 cell DNA synthesis; [5]): 18 µg/mL (≈ 31.3 µM); IC50 (MT-4 cell DNA synthesis; [6]): 12 µg/mL (≈ 20.8 µM); IC50 (MT-4 cell DNA synthesis; [7]): 38 µg/mL (≈ 66 µM); IC50 (MT-4 cell RNA synthesis; [8]): 11 µg/mL (≈ 19.1 µM); IC50 (MT-4 cell RNA synthesis; [9]): 11 µg/mL (≈ 19.1 µM); IC50 [3]: 14 µg/mL (≈ 24.3 µM); inhibition of incorporation of precursors relative to inhibition of MT-4 cell proliferation ([4]; Table 2 discussion): equally inhibitory; preferential inhibition of incorporation of one precursor over the others ([4]; Table 2 discussion): neither; inhibition of incorporation of dThd, dUrd, dCyd, Urd, Cyd or leucine [4]: did not markedly inhibit
Cc1cn([C@@H]2O[C@H](CO)[C@@]3(OS(=O)(=O)C=C3N)[C@H]2O)c(=O)[nH]c1=O [Compound 1]			> 100		-0.932	EC50 (HIV-1 (HTLV-IIIB); Table 1, HIV-1 in MT-4 cells, 5 days, read-out: EC50): > 100 µg/mL
Cc1cn([C@@H]2O[C@H](COC(=O)c3ccccc3)[C@@]3(OS(=O)(=O)C=C3N)[C@H]2O[Si](C)(C)C(C)(C)C)c(=O)[nH]c1=O [Compound 4]	> 8	< 2,5	20 (≈ 34.5 µM)	more than 95%	> 1.3	
CC(C)=CCn1c(=O)c(C)cn([C@@H]2O[C@H](CO[Si](C)(C)C(C)(C)C)[C@@]3(OS(=O)(=O)C=C3N)[C@H]2O[Si](C)(C)C(C)(C)C)c1=O [Compound 9, {1-[2', 5'-Bis-O-(tert-butyldimethylsilyl)-β-D-ribofuranosyl]-3-N-(3-methyl-2-butenyl)-thymine}-3'spiro-5"-{4"-amino-1", 2"-oxathiole-2", 2"-dioxide}]	0.239 (≈ 0.363 µM)	252	73 (≈ 111 µM)			cytotoxicity to MT-4 cells (in words) (MT-4 cells): not cytotoxic; activity against HIV-2 strain (EHO) (HIV-2 strain (EHO)): inactive; IC50 (MT-4 cell DNA synthesis; [5]): > 100 µg/mL; IC50 (MT-4 cell DNA synthesis; [6]): > 100 µg/mL; IC50 (MT-4 cell DNA synthesis; [7]): > 100 µg/mL; IC50 (MT-4 cell RNA synthesis; [8]): > 100 µg/mL; IC50 (MT-4 cell RNA synthesis; [9]): > 100 µg/mL; IC50 [3]: > 100 µg/mL; inhibition of incorporation of dThd, dUrd, dCyd, Urd, Cyd or leucine [4]: did not markedly inhibit
Cc1cn([C@@H]2O[C@H](CO[Si](C)(C)C(C)(C)C)[C@@]3(OS(=O)(=O)C=C3N)[C@H]2O)c(=O)[nH]c1=O [Compound 3]	> 20	< 2	45 (≈ 94.6 µM)	more than 95%	> 1.3	
CC(C)(C)[Si](C)(C)OC[C@H]1O[C@@H](n2cc(Br)c(=O)[nH]c2=O)[C@H](O[Si](C)(C)C(C)(C)C)[C@]12OS(=O)(=O)C=C2N [Compound 12]	0.206 (≈ 0.315 µM)	11	2.35 (≈ 3.59 µM)			activity against HIV-2 strain (EHO) (HIV-2 strain (EHO)): inactive
CC(C)(C)[Si](C)(C)OC[C@H]1O[C@@H](n2cnc3c(N)ncnc32)[C@H](O[Si](C)(C)C(C)(C)C)[C@]12OS(=O)(=O)C=C2N [Compound 17]	0.162 (≈ 0.271 µM)	45	7.3 (≈ 12.2 µM)			activity against HIV-2 strain (EHO) (HIV-2 strain (EHO)): inactive
CC(=O)Nc1ccn([C@@H]2O[C@H](CO[Si](C)(C)C(C)(C)C)[C@@]3(OS(=O)(=O)C=C3N)[C@H]2O[Si](C)(C)C(C)(C)C)c(=O)n1 [Compound 15, {4-N-Acetyl-1-[2', 5'-bis-O-(tert-butyldimethylsilyl)-β-D-ribofuranosyl]cytosine}-3'-spiro-5"-{4"-amino-1",2"-oxathiole-2",2"-dioxide}]	0.097 (≈ 0.157 µM)	77	7.5 (≈ 12.2 µM)	more than 95%	> 1.3	
C=CCn1c(=O)ccn([C@@H]2O[C@H](CO[Si](C)(C)C(C)(C)C)[C@@]3(OS(=O)(=O)C=C3N)[C@H]2O[Si](C)(C)C(C)(C)C)c1=O [Compound 13, {1-[2', 5'-Bis-O-(tert-butyldimethylsilyl)-62 -D-ribofuranosyl]-3-N-allyl-uracil}-3'-spiro-5"-{4"-amino-1", 2"-oxathiole-2", 2"-dioxide}]	0.364 (≈ 0.591 µM)	15	5.31 (≈ 8.62 µM)			
